How the values were obtained:
[1] = system: hematopoietic recovery after cyclophosphamide; test: Hematopoietic recovery after cyclophosphamide (Example 51); format: in vivo, Balb/C mice; conditions: day 5; 2 μmoles/mouse
Protocol: Cyclophosphamide (CP) (275 mg/kg, i.p.) was administered to 88 Balb/C female mice weighing approximately 20 grams each. Twenty-four hours later and each day thereafter mice were given a 0.4 ml i.p. injection of either Tween-80 (0.2%) (controls), 3'-O-palmitoyldeoxyguanosine (2 μmoles/mouse), butyryldeoxyguanosine (2 μmoles/mouse), palmitoyl-N-isobutyryldeoxyguanosine (2 μmoles/mouse), lauryldeoxyguanosine (2 μmoles/mouse), octanoyldeoxyguanosine (2 μmoles/mouse), and palmitoyldeoxyguanosine (2 μmoles/mouse). On days 5 and 7 following CP administration 6 or 7 animals in each of the 7 groups were bled and then sacrificed by cervical dislocation. Spleens were removed and weighed, and complete blood cell counts performed.

FDCPmix cells = test: Proliferation of FDCPmix cells, MTT assay (Example 69); format: cell-based; conditions: for inhibition of proliferation: 10 micrograms/ml down; for activity at 0.01 µg/mL / activity at 0.039 µg/mL / activity at 0.156 µg/mL / activity at 0.625 µg/mL / activity at 2.5 µg/mL / activity at 10 µg/mL: 48 h, read-out: Cell proliferation
Protocol: The FDCPmix cell line was used as a suitable in vitro model for predicting the effects of hematopoietic factors on pluripotential stem cells. These cells can be maintained in an-undifferentiated state in the presence of IL-3 or undergo multi-lineage development in the presence of specific hematopoietic growth factors.
This level of proliferation (100%) served as the control value. Inhibition of proliferation by test compounds was represented as a percent of control.
FDCPmix cells were plated at a density of 5×10^4 cells per well in 96-well plates (5×10^5 /ml) using IMDM medium plus 10% fetal bovine serum. […] Test compounds were added at a decreasing concentrations ranging from 10 micrograms/ml down to 1 nanogram/ml. The test compounds included: 3',5'-O-N^2 -tripalmitoyl-2'-deoxyguanosine, 3',5'-di-O-palmitoyl-2'-deoxyguanosine, 3',5'-O-N^2 -trioctanoyl-2'-deoxyguanosine, 3',5'-di-O-octanoyl-2'-deoxyguanosine, and 3',5'-O-N^2 -trioleyl-2'-deoxyguanosine.

[2] = system: blood cell counts after cyclophosphamide; test: Hematopoietic recovery after cyclophosphamide (Example 63); format: in vivo, Balb-C mice; conditions: for Neutrophils / Platelets / WBC / Spleen: 7 days after CP; for Spleen: 25 mg/kg TriPdG or molar equivalent
Protocol: Fifty-eight female Balb-C mice weighing approximately 20 grams each received a single injection of cyclophosphamide (250 mg/kg, i.p.), and were then distributed into a vehicle control group (0.2% Tween-80+7.5% DMSO in saline; n=12) or one of five treatment groups:
Vehicle or treatment agents were administered to mice once daily for five days at a volume of 0.4 ml by i.p. injection. TriPdG was given at a dose of 25 mg/kg/treatment. The other four agents were given in doses that are the molar equivalent of 25 mg/kg/treatment of TriPdG. On days 5 and 7 following CP administration half of the animals from each of the six groups were bled and then sacrificed by cervical dislocation. Five untreated mice were also bled and sacrificed to provide data on normal (basal) values. Spleens were removed and weighed, and complete blood cell counts performed.

[3] = system: hematopoiesis in normal mice; test: Hematopoiesis in normal mice (Example 56); format: in vivo, Balb/C mice; conditions: femoral bone marrow; day 5; 2.6 μmoles/mouse, 4 days
Protocol: Normal Balb/C female mice weighing approximately 20 grams each were given a daily 0.4 ml i.p. injection of either physiological saline (controls), palmitoylguanosine (2.6 μmoles/mouse), palmitoyldeoxyguanosine (2.6 μmoles/mouse), monopalmitoylguanosine 2',3'-acyclic dialcohol (2.6 μmoles/mouse), and palmitoyl-8-bromoguanosine (2.6 μmoles/mouse) for 4 days. On the fifth day all 3 animals in each of the 5 groups were bled and then sacrificed by cervical dislocation. Spleens were removed and weighed, and complete blood cell counts performed. Femoral bone marrow from each mouse was collected and a differential cell count performed on marrow smears.

[4] = system: hematopoietic recovery after cyclophosphamide; test: Hematopoietic recovery after cyclophosphamide (Example 47); format: in vivo, Balb/C mice
Protocol: Cyclophosphamide (CP) (275 mg/kg, i.p.) was administered to 48 Balb/C female mice weighing approximately 20 grams each. Twenty-four hours later and each day thereafter for a total of 6 days, mice were given a 0.4 ml i.p. injection of either physiological saline (controls), benzoylguanosine (2.5 μmoles/mouse/day in 0.2% Tween 80), or palmitoylguanosine (2.5 μmoles/mouse/day in 0.2% Tween 80). On days 7 and 10 following CP administration 8 animals from each of the 3 groups were bled and then were sacrificed by cervical dislocation. Spleens were removed and weighed, and complete blood cell counts performed.

[5] = system: hematopoietic recovery after cyclophosphamide; test: Hematopoietic recovery after cyclophosphamide (Example 48); format: in vivo, Balb/C mice; conditions: day 7; vs controls
Protocol: Cyclophosphamide (CP) (275 mg/kg, i.p.) was administered to 36 Balb/C female mice weighing approximately 20 grams each. Twenty four hours later and each day thereafter for a total of 4 or 6 days, mice were given a 0.4 ml i.p. injection of either physiological saline (controls), palmitoyldeoxyinosine (2.5 μmoles/mouse), or palmitoylxanthosine (2.5 μmoles/mouse). On days 5 and 7 following CP administration 6 of the 12 animals in each of the 3 groups were bled and then sacrificed by cervical dislocation. Spleens were removed and weighed, and complete blood cell counts performed.

| Compound | inhibition of proliferation (FDCPmix cells) | activity at 0.01 µg/mL (FDCPmix cells) [%] | activity at 0.039 µg/mL (FDCPmix cells) [%] | activity at 0.156 µg/mL (FDCPmix cells) [%] | activity at 0.625 µg/mL (FDCPmix cells) [%] | activity at 2.5 µg/mL (FDCPmix cells) [%] | activity at 10 µg/mL (FDCPmix cells) [%] | Neutrophils [2] | Platelets [2] [K/μl] | WBC [2] | Spleen [2] [mg] | also measured |
| --- | --- | --- | --- | --- | --- | --- | --- | --- | --- | --- | --- | --- |
| CCCCCCCCCCCCCCCC(=O)O[C@H]1C[C@H](n2cnc3c(=O)[nH]c(N)nc32)O[C@@H]1CO [3'-O-palmitoyldeoxyguanosine, 3'-O-Palmitoyl-2'-deoxyguanosine] | – | – | – | – | – | – | – | – | – | – | – | spleen weight [1]: significantly elevated; total neutrophil counts [1]: significantly elevated |
| CCCCCCCC(=O)OC[C@H]1O[C@@H](n2cnc3c(=O)[nH]c(N)nc32)C[C@@H]1OC(=O)CCCCCCC [DiOctdG, 3',5'-di-O-octanoyl-2'-deoxyguanosine] | little or no inhibitory effects | 84 ± 2 | 86 ± 1 | 84 ± 6 | 93 ± 1 | 78 ± 2 | 100 ± 0.3 | – | – | – | – | – |
| CCCCCCCCCCCCCCCC(=O)OC[C@H]1O[C@@H](n2cnc3c(=O)[nH]c(NC(=O)C(C)C)nc32)C[C@@H]1O [NibuPdG, N^2-isobutyryl-5'-O-palmitoyl-2'-deoxyguanosine] | – | – | – | – | – | – | – | 2.2 ± .5 K/μl | 649 ± 23 | 4.4 ± .5 K/μl | 69 ± 6 | spleen weight [1]: significantly elevated; total neutrophil counts [1]: significantly elevated |
| CCCCCCCC(=O)Nc1nc2c(ncn2[C@H]2C[C@H](OC(=O)CCCCCCC)[C@@H](COC(=O)CCCCCCC)O2)c(=O)[nH]1 [TriOctdG, 3',5'-O-N^2-trioctanoyl-2'-deoxyguanosine] | little or no inhibitory effects | 87 ± 4 | 85 ± 2 | 89 ± 6 | 86 ± 2 | 96 ± 0.1 | 107 ± 1 | – | – | – | – | – |
| CCCCCCCC/C=C\CCCCCCCC(=O)Nc1nc2c(ncn2[C@H]2C[C@H](OC(=O)CCCCCCC/C=C\CCCCCCCC)[C@@H](COC(=O)CCCCCCC/C=C\CCCCCCCC)O2)c(=O)[nH]1 [TriOdG, 3',5'-O-N^2-trioleyl-2'-deoxyguanosine] | little or no inhibitory effects | 92 ± 5 | 91 ± 5 | 92 ± 5 | 98 ± 6 | 80 ± 2 | 110 ± 3 | 2.7 ± .4 K/μl | 741 ± 54 | 5.2 ± .4 K/μl | 59 ± 5 | lymphocyte counts ([2]; day 7 after CP, vs control): increased both platelet and lymphocyte counts |
| CCCCCCCCCCCCCCCCCC(=O)Nc1nc2c(ncn2[C@H]2C[C@H](OC(=O)CCCCCCCCCCCCCCCCC)[C@@H](COC(=O)CCCCCCCCCCCCCCCCC)O2)c(=O)[nH]1 [TriSdG, 3',5'-O-N^2-tristearyl-2'-deoxyguanosine] | – | – | – | – | – | – | – | 5.4 ± .5 K/μl | 498 ± 27 | 7.6 ± .4 K/μl | 85 ± 9 | – |
| CCCCCCCCCCCCCCCC(=O)OC[C@H]1O[C@@H](n2c(Br)nc3c(=O)[nH]c(N)nc32)[C@H](O)[C@@H]1O [palmitoyl-8-bromoguanosine] | – | – | – | – | – | – | – | – | – | – | – | number of myelocytes [3]: significantly greater |
| Benzoylguanosine | – | – | – | – | – | – | – | – | – | – | – | Neutrophils ([4]; day 7, 2.5 μmoles/mouse/day): significantly elevated; spleen weight ([4]; day 7, 2.5 μmoles/mouse/day): significantly elevated; total white blood cells ([4]; day 7, 2.5 μmoles/mouse/day): significantly elevated; platelet number ([4]; day 10): significantly greater |
| Palmitoylxanthosine | – | – | – | – | – | – | – | – | – | – | – | Neutrophils [5]: significantly increased; spleen weight [5]: significantly increased; total leukocytes [5]: significantly increased |

Reference: patent publication US6054441A, “Oxypurine nucleosides and their congeners, and acyl derivatives thereof, for improvement of hematopoiesis” (priority 1995, dated 2000)
